# Source: US20090176817A1, “Method of Treatment of Diarrhea-Predominant Irritable Bowel Syndrome in a Subject” (priority 2005, published 2009)
# Marks after values point to notes of the source that are not given here.
# Tests used:
# [1] = Study S.241.1.110: pharmacokinetics in renal impairment, 2 mg TID; settings: for AUC(0-τ) / Cmax / T½ / Tmax / Cmin: cilansetron 2 mg TID; for AUC(0-τ) / Cmax / T½ / Cmin: mean (%CV); for Tmax: median; for Cmin: Day 6 morning predose value
# Protocol: The effect of renal impairment on the pharmacokinetics of cilansetron was evaluated in a study excluding subjects with end-stage renal disease, and utilizing a single-center, open-label, multiple-dose, parallel group study in 13 male and 9 female subjects, aged 33-74 years. […] Healthy subjects were matched to renally-impaired subjects with respect to age, weight, gender, and smoking status. All subjects received oral cilansetron 2 mg TID on Days 1 to 5, and a single dose on the morning of Day 6. Blood samples for measurement of plasma pharmacokinetics of cilansetron and its 4-hydroxy metabolites were collected up to 24 hours following dosing on Day 6, and log-transformed pharmacokinetic parameters for these analytes were statistically compared between study groups. Serum concentrations of unbound cilansetron and its 4-hydroxy metabolites were also measured prior to dosing and at 1 and 1.5 hours postdose on Day 6.
# [2] = Study S.241.1.110: ex vivo protein binding in serum, healthy and renally impaired; settings: for Fraction unbound ratio All Renal Groups Combined:Healthy / Fraction unbound ratio Mild:Healthy / Fraction unbound ratio Moderate:Healthy / Fraction unbound ratio Severe:Healthy: ratio (90% CI)
# Protocol: The ex vivo protein binding of cilansetron and its 4-hydroxy metabolites has been measured in serum samples collected in a multiple-dose study in healthy and renally impaired male and female subjects, aged 33-74 years. […] Healthy subjects were matched to renally-impaired subjects with respect to age, weight, gender, and smoking status. All subjects received oral cilansetron 2 mg TID on Days 1 to 5, and a single dose on the morning of Day 6.
# [3] = Study S.241.1.109: interaction with ketoconazole 200 mg BID; format: in vivo, human; settings: for AUC(0-τ) / Cmax / Tmax: steady state; for AUC(0-τ): AUC(0-8); for AUC(0-τ) / Cmax: arith. mean; for Tmax: median
# Protocol: In an open-label, randomized, parallel-group study in three groups of 12 healthy, male and female subjects (aged 19 to 45 years), subjects received a 2 mg single dose of cilansetron on Day 1, 2 mg TID on Days 2-13, and a 2 mg single dose on Day 14. […] All morning doses of cilansetron and enzyme inhibitors were administered immediately after a standard breakfast. […] For each treatment group, log-transformed cilansetron AUC(0-τ) and Cmax values on Day 14 (cilansetron+enzyme inhibitor) were compared statistically versus values on Day 7 (cilansetron alone).
# [4] = moderate renal impairment, Day 6
# [5] = Cilansetron 2 mg TID + Ketoconazole 200 mg twice daily
# [6] = Cilansetron 2 mg TID alone (ketoconazole group)
# [7] = cilansetron + ketoconazole / cilansetron alone, ANOVA of log-transformed data
compound,measurement,setting,value
Cc1nccn1CC1CCc2c(c3cccc4c3n2CC[C@H]4O)C1=O (stereo partly drawn) [(4R)-hydroxy cilansetron],Plasma Conc.,"[1]; Day 6 1 h, Healthy",3.90 (37) ng/mL
same,Plasma Conc.,"[1]; Day 6 1 h, Mild",4.86 (39) ng/mL
same,Plasma Conc.,"[1]; Day 6 1 h, Moderate",3.94 (32) ng/mL
same,Plasma Conc.,"[1]; Day 6 1 h, Severe",7.67 (38) ng/mL
same,AUC(0-τ) ratio Mild/Healthy,"[1]; Day 6, geometric LS mean ratio (90% CI)","118 (90, 153) %"
same,AUC(0-τ) ratio Moderate/Healthy,"[1]; Day 6, ratio (90% CI)","137 (104, 182) %"
same,AUC(0-τ) ratio Renal Combined/Healthy,"[1]; Day 6, ratio (90% CI)","166 (136, 204)* %"
same,AUC(0-τ) ratio Severe/Healthy,"[1]; Day 6, ratio (90% CI)","284 (215, 377)* %"
same,Cmax ratio Mild/Healthy,"[1]; Day 6, ratio (90% CI)","134 (101, 177) %"
same,Cmax ratio Moderate/Healthy,"[1]; Day 6, ratio (90% CI)","137 (102, 185) %"
same,Cmax ratio Renal Combined/Healthy,"[1]; Day 6, ratio (90% CI)","158 (127, 196)* %"
same,Cmax ratio Severe/Healthy,"[1]; Day 6, ratio (90% CI)","215 (159, 290)* %"
same,T½ ratio Mild/Healthy,"[1]; Day 6, ratio (90% CI)","109 (84, 142) %"
same,T½ ratio Moderate/Healthy,"[1]; Day 6, ratio (90% CI)","129 (97, 171) %"
same,T½ ratio Renal Combined/Healthy,"[1]; Day 6, ratio (90% CI)","140 (114, 172)* %"
same,T½ ratio Severe/Healthy,"[1]; Day 6, ratio (90% CI)","195 (147, 259)* %"
same,Plasma Conc.,"[1]; Day 6 […], Healthy",3.79 (20) ng/mL
same,Plasma Conc.,"[1]; Day 6 […], Mild",3.86 (20) ng/mL
same,Plasma Conc.,"[1]; Day 6 […], Moderate",4.75 (28) ng/mL
same,Plasma Conc.,"[1]; Day 6 […], Severe",7.87 (38) ng/mL
same,AUC(0-τ),"[1]; healthy subjects, Day 6",18.7 (21) ng · h/mL
same,Cmax,"[1]; healthy subjects, Day 6",4.30 (33) ng/mL
same,T½,"[1]; healthy subjects, Day 6",7.05 (21) h
same,Tmax,"[1]; healthy subjects, Day 6",1.25 h
same,Cmin,[1]; healthy subjects,1.56 (24) ng/mL
same,Exposure increase with severe renal impairment,[1]; in vivo,2-3 fold
same,Mean AUC(0-τ) increase vs healthy,[1]; mild impairment,18%
same,Mean Cmax increase vs healthy,[1]; mild impairment,34%
same,AUC(0-τ),"[1]; mild renal impairment, Day 6",21.6 (9) ng · h/mL
same,Cmax,"[1]; mild renal impairment, Day 6",5.66 (25) ng/mL
same,T½,"[1]; mild renal impairment, Day 6",7.93 (38) h
same,Tmax,"[1]; mild renal impairment, Day 6",1.25 h
same,Cmin,[1]; mild renal impairment,1.68 (24) ng/mL
same,Mean AUC(0-τ) increase vs healthy,[1]; moderate impairment,37%
same,Mean Cmax increase vs healthy,[1]; moderate impairment,37%
same,AUC(0-τ),[1]; [4],26.3 (34) ng · h/mL
same,Cmax,[1]; [4],5.83 (28) ng/mL
same,T½,[1]; [4],9.32 (36) h
same,Tmax,[1]; [4],1.25 h
same,Cmin,[1]; moderate renal impairment,2.06 (40) ng/mL
same,Mean AUC(0-τ) increase vs healthy,[1]; severe impairment,184%
same,Mean Cmax increase vs healthy,[1]; severe impairment,115%
same,AUC(0-τ),"[1]; severe renal impairment, Day 6",55.8 (45) ng · h/mL
same,Cmax,"[1]; severe renal impairment, Day 6",9.35 (39) ng/mL
same,T½,"[1]; severe renal impairment, Day 6",13.9 (30) h
same,Tmax,"[1]; severe renal impairment, Day 6",1.50 h
same,Cmin,[1]; severe renal impairment,4.36 (36) ng/mL
same,Fraction unbound ratio All Renal Groups Combined:Healthy,[2]; 1 h,"121 (109, 134)^b %"
same,Fraction unbound ratio Mild:Healthy,[2]; 1 h,"106 (93, 121) %"
same,Fraction unbound ratio Moderate:Healthy,[2]; 1 h,"137 (119, 157)^b %"
same,Fraction unbound ratio Severe:Healthy,[2]; 1 h,"121 (105, 140)^b %"
same,Fraction Unbound in Serum,"[2]; Day 6 1 h, Healthy",24.7 (7) %
same,Fraction Unbound in Serum,"[2]; Day 6 1 h, Mild",26.4 (14) %
same,Fraction Unbound in Serum,"[2]; Day 6 1 h, Moderate",34.3 (22) %
same,Fraction Unbound in Serum,"[2]; Day 6 1 h, Severe",30.2 (18) %
same,Fraction Unbound in Serum,"[2]; Day 6 […], Healthy",27.6 (15) %
same,Fraction Unbound in Serum,"[2]; Day 6 […], Mild",26.2 (17) %
same,Fraction Unbound in Serum,"[2]; Day 6 […], Moderate",28.5 (13) %
same,Fraction Unbound in Serum,"[2]; Day 6 […], Severe",23.7 (11) %
same,Fraction Unbound in Serum,"[2]; Day 6 predose, Healthy",25.3 (11) %
same,Fraction Unbound in Serum,"[2]; Day 6 predose, Mild",29.6 (30) %
same,Fraction Unbound in Serum,"[2]; Day 6 predose, Moderate",31.0 (21) %
same,Fraction Unbound in Serum,"[2]; Day 6 predose, Severe",32.4 (17) %
same,Fraction unbound ratio All Renal Groups Combined:Healthy,[2]; […],"95 (85, 105) %"
same,Fraction unbound ratio Mild:Healthy,[2]; […],"95 (83, 109) %"
same,Fraction unbound ratio Moderate:Healthy,[2]; […],"104 (90, 120) %"
same,Fraction unbound ratio Severe:Healthy,[2]; […],"86 (74, 100) %"
same,Protein bound on average,[2]; healthy subjects,72.4-75.3%
same,Fraction unbound ratio All Renal Groups Combined:Healthy,[2]; predose,"121 (105, 139)^b %"
same,Fraction unbound ratio Mild:Healthy,[2]; predose,"114 (96, 137) %"
same,Fraction unbound ratio Moderate:Healthy,[2]; predose,"122 (100, 147) %"
same,Fraction unbound ratio Severe:Healthy,[2]; predose,"128 (105, 155)^b %"
same,Plasma protein bound,[2]; therapeutic concentration range,72-75%
same,AUC(0-τ),[3]; [5],20.8 ng·h/mL
same,Cmax,[3]; [5],5.11 ng/mL
same,Tmax,[3]; [5],1.50 h
same,AUC(0-τ),[3]; [6],12.2 ng·h/mL
same,Cmax,[3]; [6],2.48 ng/mL
same,Tmax,[3]; [6],2.00 h
same,AUC(0-τ) Ratio (Treatment B/A),[3]; [7],176%
same,Cmax Ratio (Treatment B/A),[3]; [7],209%
